The source of these data is patent US9365588B2, “Benzoxazines as modulators of ion channels” (Vertex Pharmaceuticals Incorporated, priority 2011, dated 2016).

Structures are written as SMILES.

This assay has as its target human NaV 1.7 (Homo sapiens, UniProt Q15858). As to the kind of experiment: E-VIPR optical membrane potential assay with electrical stimulation. The following applies: sodium channel inhibition; read-out: Binned Activity Data (IC50). Format: cell-based. A digest of the protocol: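 Membrane-potential read-out: background-subtracted 460 nm/580 nm ratio during a 9 s current-controlled stimulus, 400 Hz scan. Before stimulation, NaV1.7-HEK cells carried coumarin/oxonol dye and compound (final DMSO 0.625%) for 20–35 min at room temperature; tetracaine 125 μM served as positive control.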

human NaV 1.7, sequence (Q15858 whole entry): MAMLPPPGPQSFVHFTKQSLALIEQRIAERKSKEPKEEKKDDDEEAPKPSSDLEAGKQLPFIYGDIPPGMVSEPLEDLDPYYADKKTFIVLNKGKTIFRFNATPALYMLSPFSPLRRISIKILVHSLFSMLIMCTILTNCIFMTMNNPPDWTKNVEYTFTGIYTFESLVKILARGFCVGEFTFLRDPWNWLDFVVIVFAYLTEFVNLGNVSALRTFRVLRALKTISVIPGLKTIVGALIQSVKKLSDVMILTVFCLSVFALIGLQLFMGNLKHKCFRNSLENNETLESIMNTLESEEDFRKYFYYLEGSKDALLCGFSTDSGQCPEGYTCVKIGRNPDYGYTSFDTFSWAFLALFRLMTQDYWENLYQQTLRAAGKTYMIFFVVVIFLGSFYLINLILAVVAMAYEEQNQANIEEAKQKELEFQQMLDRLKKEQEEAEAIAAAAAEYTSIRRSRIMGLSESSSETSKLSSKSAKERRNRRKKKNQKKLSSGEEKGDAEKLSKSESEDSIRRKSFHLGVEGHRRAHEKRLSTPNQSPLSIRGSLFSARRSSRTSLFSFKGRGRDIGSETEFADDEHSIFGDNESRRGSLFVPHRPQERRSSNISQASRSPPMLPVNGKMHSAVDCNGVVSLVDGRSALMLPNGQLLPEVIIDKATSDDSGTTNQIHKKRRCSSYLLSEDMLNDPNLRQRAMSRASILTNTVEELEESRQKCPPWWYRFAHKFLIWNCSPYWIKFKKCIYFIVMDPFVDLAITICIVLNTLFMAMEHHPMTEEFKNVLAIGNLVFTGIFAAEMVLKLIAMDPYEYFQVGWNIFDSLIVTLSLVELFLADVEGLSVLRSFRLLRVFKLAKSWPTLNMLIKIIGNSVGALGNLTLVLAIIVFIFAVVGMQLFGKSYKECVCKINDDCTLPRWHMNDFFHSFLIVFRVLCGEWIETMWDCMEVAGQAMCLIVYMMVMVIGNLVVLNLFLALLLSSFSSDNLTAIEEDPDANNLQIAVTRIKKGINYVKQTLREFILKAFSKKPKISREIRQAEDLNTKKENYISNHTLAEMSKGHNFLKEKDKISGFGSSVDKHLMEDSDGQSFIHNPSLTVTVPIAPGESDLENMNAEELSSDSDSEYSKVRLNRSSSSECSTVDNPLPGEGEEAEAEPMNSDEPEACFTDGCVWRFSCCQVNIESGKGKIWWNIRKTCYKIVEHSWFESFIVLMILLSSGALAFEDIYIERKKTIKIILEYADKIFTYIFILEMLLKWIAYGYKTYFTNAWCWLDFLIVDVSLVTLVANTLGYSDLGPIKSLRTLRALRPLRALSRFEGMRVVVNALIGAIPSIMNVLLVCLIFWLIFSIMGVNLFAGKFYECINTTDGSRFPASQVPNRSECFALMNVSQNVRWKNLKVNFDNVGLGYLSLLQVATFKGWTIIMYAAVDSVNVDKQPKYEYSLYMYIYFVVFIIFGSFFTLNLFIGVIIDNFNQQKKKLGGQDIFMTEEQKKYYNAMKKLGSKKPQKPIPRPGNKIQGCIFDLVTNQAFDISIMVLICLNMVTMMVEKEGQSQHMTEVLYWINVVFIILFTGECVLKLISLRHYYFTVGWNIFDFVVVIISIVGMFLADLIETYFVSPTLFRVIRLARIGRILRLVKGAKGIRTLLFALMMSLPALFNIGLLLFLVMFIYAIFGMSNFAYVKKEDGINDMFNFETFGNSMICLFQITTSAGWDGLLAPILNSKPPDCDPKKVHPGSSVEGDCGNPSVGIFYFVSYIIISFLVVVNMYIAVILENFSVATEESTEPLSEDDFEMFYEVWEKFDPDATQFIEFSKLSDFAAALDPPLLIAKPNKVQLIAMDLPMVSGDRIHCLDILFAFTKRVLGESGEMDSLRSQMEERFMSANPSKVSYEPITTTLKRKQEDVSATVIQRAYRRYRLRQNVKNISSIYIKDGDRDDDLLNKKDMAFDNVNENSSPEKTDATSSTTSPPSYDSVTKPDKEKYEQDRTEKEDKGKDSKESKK

Turning to `COc1ccc(C(=O)N2CCC3(CC2)Oc2ccccc2-c2c3cnn2C)cc1OC` [Compound 620], the IC50 was at most 2000 nM.

For `CCS(=O)(=O)c1ccc(C(=O)N2CCC3(CC2)Oc2ccccc2-c2c3cnn2C)cc1` [Compound 859], the IC50 was 2000 to 5000 nM.

Take `CC1Oc2c(C(=O)N3CCC4(CC3)Oc3ccccc3-c3c4cnn3C)cccc2C1C` (centres unmarked) [Compound 56]: the IC50 is at most 2000 nM.

For the molecule `Cn1ncc2c1-c1ccccc1OC21CCN(C(=O)c2cccc3nccnc23)CC1` [Compound 439], the IC50 is at most 2000 nM.

Consider `CC(C)(O)Cc1ccc(C(=O)N2CCC3(CC2)Oc2ccccc2-n2c(C(F)(F)F)ccc23)cc1` [Compound 682], for which the IC50 was at most 2000 nM.

Consider `Cn1ncc2c1-c1ccccc1OC21CCN(C(=O)c2ccc3[nH]ncc3c2)CC1` [Compound 444], for which the IC50 was over 5000 nM.

Take `COc1cccc(C(=O)N2CCC3(CC2)Oc2cc(Cl)ccc2-n2cccc23)c1` [Compound 724]: the IC50 was at most 2000 nM.

In the case of `COc1c(C)cccc1C(=O)N1CCC2(CC1)Oc1ccccc1-c1c2cnn1C` [Compound 109], the concentration for half-maximal inhibition (IC50) is at most 2000 nM.

`COc1cc(C(=O)N2CCC3(CC2)Oc2ccccc2-c2c3cnn2C)ccc1OC(C)(C)C` [Compound 313]: the IC50 is at most 2000 nM.

Turning to `Cn1ncc2c1-c1ccccc1OC21CCN(C(=O)c2ccc(OC3CCCC3)cc2)CC1` [Compound 828], the IC50 was at most 2000 nM.

With `COC[C@@H](C)Oc1ccc(C(=O)N2CCC3(CC2)Oc2cc(Cl)ccc2-n2cccc23)cc1OC` [Compound 31], the IC50 was at most 2000 nM.

Take `CC(C)Oc1ccc(C(=O)N2CCC3(CC2)Oc2ccccc2-n2c3ccc2S(C)(=O)=O)cc1F` [Compound 282]: the IC50 is at most 2000 nM.

In the case of `Cc1cc(C(=O)N2CCC3(CC2)Oc2ccccc2-c2nn(C)cc23)ccc1OC(C)C` [Compound 689], the IC50 is at most 2000 nM.

Take `Cn1ncc2c1-c1ccc(Cl)cc1OC21CCN(C(=O)c2ccccc2OC(F)(F)F)CC1` [Compound 518]: the IC50 was at most 2000 nM.

Regarding `Cn1cc2c(n1)-c1ccccc1OC21CCN(C(=O)c2ccc(C(C)(C)O)cc2)CC1` [Compound 230], the IC50 was at most 2000 nM.

As for `Cc1ccc2c(c1)OC1(CCN(C(=O)c3ccc(S(=O)(=O)C(C)C)cc3)CC1)c1ccc(C#N)n1-2` [Compound 440], the IC50 was at most 2000 nM.

Consider `Cc1cc(C)c(C(=O)N2CCC3(CC2)Oc2cc(Cl)ccc2-n2cccc23)c(=O)[nH]1` [Compound 22], for which the IC50 lay in the range of 2000 to 5000 nM.

`CC(=O)c1ccc2n1-c1ccccc1OC21CCN(C(=O)c2ccc(S(=O)(=O)C(C)(C)C)cc2)CC1` [Compound 311]: the IC50 is at most 2000 nM.

With `CCn1ncc2c1-c1cc(F)ccc1OC21CCN(C(=O)c2ccc(OC(C)C)c(OC)c2)CC1` [Compound 742], the IC50 lay within 2000 to 5000 nM.

For `CCCOc1ccc(C(=O)N2CCC3(CC2)Oc2ccccc2-c2c3cnn2C)cc1C` [Compound 709], the IC50 was at most 2000 nM.

For the molecule `CCc1ccc(C(=O)N2CCC3(CC2)Oc2cc(Cl)ccc2-n2cccc23)cc1C` [Compound 55], the IC50 was at most 2000 nM.

Consider `COc1cc(C(=O)N2CCC3(CC2)Oc2ccccc2-c2nn(C)cc23)ccc1OC(C)(C)C` [Compound 307], for which the IC50 was at most 2000 nM.

In the case of `Cn1ncc2c1-c1ccccc1OC21CCN(C(=O)c2cccc(F)c2OC(F)F)CC1` [Compound 194], the half-inhibitory concentration (IC50) was at most 2000 nM.

With `COc1cc(OC)c(C(=O)N2CCC3(CC2)Oc2ccccc2-n2cccc23)cc1CO` [Compound 474], the IC50 was in the range of 2000 to 5000 nM.

As to `CC(C)Oc1cccc(C(=O)N2CCC3(CC2)Oc2ccccc2-n2c(C#N)ccc23)c1F` [Compound 770], the IC50 is at most 2000 nM.

As for `CNS(=O)(=O)c1ccc(C(=O)N2CCC3(CC2)Oc2ccccc2-n2c(C(F)(F)F)ccc23)cc1` [Compound 675], the IC50 is at most 2000 nM.

Consider `CC(C)(C)[S@@+]([O-])c1ccc(C(=O)N2CCC3(CC2)Oc2ccccc2-n2c(C(F)(F)F)ccc23)cc1` [Compound 880], for which the IC50 was 2000 to 5000 nM.

For `CCn1ncc2c1-c1ccccc1OC21CCN(C(=O)c2ccc(C(C)(C)C)c(OC)c2)CC1` [Compound 372], the IC50 was at most 2000 nM.

With `Cc1cc(C(=O)N2CCC3(CC2)Oc2ccccc2-n2c(C#N)ccc23)ccc1OC(C)(C)C(=O)O` [Compound 408], the IC50 is 2000 to 5000 nM.

`COc1cc(C(=O)N2CCC3(CC2)Oc2ccccc2-c2nn(C)cc23)ccc1C(C)(C)C` [Compound 754]: the IC50 was over 5000 nM.

Turning to `CC(=O)c1ccc2n1-c1ccccc1OC21CCN(C(=O)c2ccc(S(=O)(=O)NC3CC3)cc2)CC1` [Compound 235], the IC50 was at most 2000 nM.

Consider `O=C(c1ccc(S(=O)(=O)NC2CC2)cc1)N1CCC2(CC1)Oc1ccccc1-n1c(C(F)(F)F)ccc12` [Compound 541], for which the IC50 was at most 2000 nM.

For `COc1cc(C(F)(F)F)ccc1C(=O)N1CCC2(CC1)Oc1cc(Cl)ccc1-n1cccc12` [Compound 484], the IC50 is at most 2000 nM.

Regarding `N#Cc1ccc2n1-c1ccccc1OC21CCN(C(=O)c2ccc(OCCO)cc2)CC1` [Compound 197], the IC50 was at most 2000 nM.

Turning to `COc1cc(OC)c(C(=O)N2CCC3(CC2)Oc2ccccc2-c2nn(C)cc23)cc1OC` [Compound 240], the IC50 fell in the range of 2000 to 5000 nM.

For `CC(C)CCOc1ccc(C(=O)N2CCC3(CC2)Oc2ccccc2-c2c3cnn2C)cc1` [Compound 174], the IC50 was at most 2000 nM.

For `Cc1cc(C(=O)N2CCC3(CC2)Oc2cc(Cl)ccc2-n2cccc23)ccc1C#N` [Compound 453], the IC50 was at most 2000 nM.

Turning to `CN(C)c1cc(C(=O)N2CCC3(CC2)Oc2ccccc2-c2c3cnn2C)ccn1` [Compound 499], the IC50 is 2000 to 5000 nM.

For the molecule `CCc1ccc(C(=O)N2C3CCC2CC2(C3)Oc3ccccc3-n3cccc32)cc1OC` (centres unmarked) [Compound 555], the IC50 was at most 2000 nM.

In the case of `Cc1cc(C(=O)N2CCC3(CC2)Oc2ccccc2-c2[nH]ncc23)ccc1OC(C)C` [Compound 500], the IC50 is at most 2000 nM.

Regarding `Cc1cc(C(=O)N2CCC3(CC2)Oc2ccccc2-n2cccc23)ccc1OC(C)(C)C` [Compound 538], the IC50 was at most 2000 nM.

Regarding `COc1ccc(C(=O)N2CCC3(CC2)Oc2ccccc2-n2cccc23)cc1S(C)(=O)=O` [Compound 41], the IC50 was at most 2000 nM.

Consider `CC(C)S(=O)(=O)c1ccc(C(=O)N2CCC3(CC2)Oc2ccccc2-n2cccc23)cc1` [Compound 579], for which the IC50 is at most 2000 nM.

In the case of `COc1cc(C(F)(F)F)ccc1C(=O)N1CCC2(CC1)Oc1ccccc1-c1c2cnn1C` [Compound 574], the IC50 is at most 2000 nM.

`COc1cc(C(=O)N2CCC3(CC2)Oc2cc(F)ccc2-n2cccc23)ccc1C(C)(C)C` [Compound 855]: the IC50 was at most 2000 nM.

With `N#Cc1ccccc1C(=O)N1CCC2(CC1)Oc1cc(Cl)ccc1-n1cccc12` [Compound 343], the IC50 is over 5000 nM.

As to `COc1cc(C(=O)N2CCC3(CC2)Oc2cc(F)ccc2-n2cccc23)ccc1OCC(N)=O` [Compound 772], the IC50 is at most 2000 nM.

In the case of `CS(=O)(=O)c1ccc2n1-c1ccccc1OC21CCN(C(=O)c2ccccc2OC(F)F)CC1` [Compound 195], the IC50 is at most 2000 nM.

Consider `COc1cccc(F)c1C(=O)N1CCC2(CC1)Oc1cc(Cl)ccc1-n1cccc12` [Compound 739], for which the IC50 was at most 2000 nM.

On to `CCc1ccc(C(=O)N2CCC3(CC2)Oc2cc(C#N)ccc2-n2cccc23)cc1OC` [Compound 511], for which the IC50 was at most 2000 nM.

`Cc1ccc(C(=O)N2CCC3(CC2)Oc2ccccc2-c2c3cnn2C)c(Cl)c1` [Compound 773]: the IC50 is at most 2000 nM.

Regarding `Cc1cc(C(=O)N2CCC3(CC2)Oc2ccccc2-c2c3ncn2C)ccc1OC(C)C` [Compound 583], the IC50 is at most 2000 nM.

On to `Cc1cc(C(=O)N2CCC3(CC2)Oc2ccccc2-c2c3cnn2C)ccc1OC(C)C` [Compound 5], for which the IC50 was at most 2000 nM.
